Data reported in US8841269B2, “Polynucleotides for use in treating and diagnosing cancers” (Creighton University, priority 2010, dated 2014).
“Also recorded” adds a separate entry of the source.

Assays:
[1] = test system: 3′ UTR of human ER-α gene; assay: Luciferase reporter assay, ER-α 3′ UTR let-7 binding site in pMIR-REPORT; format: cell-based; settings: MCF7 cells; for luciferase activity, ER-α binding site in 3′UTR of luciferase: 60 nmol/L mimics, vs negative control miRNA; for luciferase activity, mutated ER-α binding sequence: mutated sequence in 3′UTR of luciferase
From the text: Luciferase assay. A fragment of the 3′ UTR of human ER-α gene, which contains the putative let-7 target sites, was synthesized (IDT technology). With attached SpeI and HindIII restriction sites, the fragments are 48 by long. The sense strand was 5′-[…] (SEQ ID NO:39) while the antisense strand was 5′-[…] (SEQ ID NO:40). The cloning and transfection followed previous protocol (Hu et al., 2009, J Immunol 183:1617-24). Sixty nanomolar let-7 mimics, anti-let-7 inhibitors, pre-miR negative control #1 (AM17110, Ambion), or anti-miR negative control #1 (AM17010, Ambion) were transfected together with a 0.25 μg luciferase construct and a 0.25 μg β-galactosidase plasmid, which were used as a normalization reference. After 24 hour post-transfection, the luciferase activity was measured in a Veritas Microplate Luminometer (Turner Biosystems). Every treatment had 3 replicates. The luciferase activity was expressed as a fraction of negative control.

[2] = test system: ER-α36; assay: Immunoblot of ER-α36 after transfection; format: cell-based, human; settings: MDA-MB-231, two days post transfection of mimics
Protocol: Let-7 miRNA or negative control #1 miRNA of 60 nmol/L (Ambion, Austin, Tex.) was transfected into cells with the siPORT NeoFX reagent (Ambion, Austin, Tex.) following the manufacturer's protocol.
Cells were lysed with NP40 cell lysis buffer (250 mM NaCl, 50 mM Tris-HCl, pH 7.4, 5 mM EDTA, 50 mM NaF, 1 mM Na3VO4, 1% Nonidet P40, 1 mM PMSF, proteinase and phosphoproteinase inhibitor cocktails). The protein was also extracted from FFPE sections. FFPE sections (50 μm thick) were transferred into a microcentrifuge tube and treated with xylene, followed by vortexing vigorously for 10 seconds. After centrifugation and removal of supernatant, the sections were washed with xylene two more times, followed by one more wash with 1 mL of 100% ethanol. The resultant pellets were vacuum dried, then resuspended in 300 μL of 20 mM Tris-HCl (pH 8.0) and 2% SDS and homogenized. The samples were then boiled at 100° C. for 20 minutes and incubated at 60° C. for 1 hour. After centrifugation at 10,000 g for 15 min at 4° C., the supernatant protein was saved for immunoblot analysis.
After mixed with gel-loading buffer and boiled for 5 minutes, the protein samples were separated with 10% SDS-PAGE and transferred to a PVDF membrane (Millipore, Billerica, Mass.). […] Gel density was quantified with Quantity One and expressed as a relative value against β-actin. […]

[3] = test system: MCF7-Tam cells; assay: MTT cell proliferation assay with tamoxifen in MCF7-Tam; format: cell-based, human; settings: 1 μmol/L tamoxifen
Protocol: MCF7-Tam cells were transfected with let-7 mimics or negative control in normal growth medium for 1 day, or in medium with 2.5% charcoal-stripped FBS for 2 days to exhaust endogenous estrogen. Ten thousand cells in the volume of 100 μL were seeded in a 96-well plate for 12 hours and assay lasted for another 4 days. For tamoxifen treatment, 1 μmol/L tamoxifen was added to each well of 96-well plate. Each treatment had 12 replicates on the plate. Medium volume was increased to 200 μL after the assay began. The cells were then incubated in 0.83 mg/mL 3-[4,5-dimethylthiazol-2-yl]-2,5-diphenyltetrazolium bromide (MTT) in growth medium at 37° C. for 4 hours and lysed in 100 μL of dimethyl sulfoxide at room temperature for 15 minutes. The absorbance in each well was measured at […] with an ELx800 Absorbance Microplate Reader (Biotek, Winooski, Vt.). Cell growth was expressed as a fraction of absorbance at day 0.

[4] = Stability of miRNAs in serum (room temperature, freeze/thaw); format: physicochemical, human; settings: serum from a healthy person, freeze/thaw up to eight times
Protocol: (§1) FIG. 21. Stability of miRNAs in room temperature for number of time points. 300 μl of sera from a healthy person was thawed on ice and lysed with an equal volume of 2× Denaturing Solution (Ambion). RNA was isolated spiked sera using the mirVana PARIS kit following the manufacturer's protocol for liquid samples (Ambion). RNA was eluted with 50 μl of nuclease-free water. This experiment was performed in triplicates.
as §1, with “22.” for “21.”, “freeze/thaws.” for “room temperature for number of time points.”, “ice, exogenous miRNAs were spiked in,” for “ice”, “and then performed freeze/thaw cycles for the indicated times, then” for “and”
Second, we wanted to know whether our lab conditions such as temperature and freezing and thawing affect the stability of miRNAs. We selected a serum sample from healthy […], and incubated in room temperature for a series of time points (spiked three exogenous miRNAs as external controls) (FIG. 21). As expected, the selected miRNAs were very stable throughout the experiment. This observation is in consistent with the literature (Mitchell et al., 2008, Proc. Natl. Acad. Sci. U.S.A 105:10513-8). […]

[5] = E2 free medium (2.5% charcoal-stripped FBS)
[6] = complete (normal growth) medium with 10% FBS

Substance	luciferase activity, ER-α binding site in 3′UTR of luciferase [1]	luciferase activity, mutated ER-α binding sequence [1]	ER-α36 protein level [2]	tamoxifen sensitivity / cell growth (MTT) with tamoxifen [3, 5]	tamoxifen sensitivity / cell growth (MTT) with tamoxifen [3, 6]	stability in repeated freeze/thaws [4]
let-7b: let-7b miRNA (mimic), 3′-UUGGUGUGUUGGAUGAUGGAGU-5′ (SEQ ID NO:8) (chemistry not given here; listed 3' to 5')	decreased the luciferase activity; also recorded: significantly inhibited the luciferase activity	abrogated the effects; also recorded: did not show inhibition	strongly inhibited; also recorded: inhibited	grew significantly slower; also recorded: significantly enhanced tamoxifen sensitivity	does not affect tamoxifen sensitivity	relatively stable
let-7i: let-7i miRNA (mimic), 3′-UUGUCGUGUUUGAUGAUGGAGU-5′ (SEQ ID NO:14) (chemistry not given here; listed 3' to 5')	decreased the luciferase activity; also recorded: significantly inhibited the luciferase activity	abrogated the effects; also recorded: did not show inhibition	strongly inhibited; also recorded: inhibited	grew significantly slower; also recorded: significantly enhanced tamoxifen sensitivity	does not affect tamoxifen sensitivity	relatively stable
